Reference: US20260217697A1, “COMPOUNDS COMPRISING HETEROARYL RINGS AND COMPOSITIONS AND METHODS THEREOF” (lonGen Therapeutics Co., Ltd., priority 2022, published 2026)

Target: T1, hTRPV3 (Homo sapiens, UniProt Q8NET8)
T1 construct: The commercially available plasmid with the full-length cDNA of hTRPV3 (791 aa) (NM_001258205.2); host or cells: HEK293T
T1 sequence (Q8NET8 1-791 isoform Q8NET8-2): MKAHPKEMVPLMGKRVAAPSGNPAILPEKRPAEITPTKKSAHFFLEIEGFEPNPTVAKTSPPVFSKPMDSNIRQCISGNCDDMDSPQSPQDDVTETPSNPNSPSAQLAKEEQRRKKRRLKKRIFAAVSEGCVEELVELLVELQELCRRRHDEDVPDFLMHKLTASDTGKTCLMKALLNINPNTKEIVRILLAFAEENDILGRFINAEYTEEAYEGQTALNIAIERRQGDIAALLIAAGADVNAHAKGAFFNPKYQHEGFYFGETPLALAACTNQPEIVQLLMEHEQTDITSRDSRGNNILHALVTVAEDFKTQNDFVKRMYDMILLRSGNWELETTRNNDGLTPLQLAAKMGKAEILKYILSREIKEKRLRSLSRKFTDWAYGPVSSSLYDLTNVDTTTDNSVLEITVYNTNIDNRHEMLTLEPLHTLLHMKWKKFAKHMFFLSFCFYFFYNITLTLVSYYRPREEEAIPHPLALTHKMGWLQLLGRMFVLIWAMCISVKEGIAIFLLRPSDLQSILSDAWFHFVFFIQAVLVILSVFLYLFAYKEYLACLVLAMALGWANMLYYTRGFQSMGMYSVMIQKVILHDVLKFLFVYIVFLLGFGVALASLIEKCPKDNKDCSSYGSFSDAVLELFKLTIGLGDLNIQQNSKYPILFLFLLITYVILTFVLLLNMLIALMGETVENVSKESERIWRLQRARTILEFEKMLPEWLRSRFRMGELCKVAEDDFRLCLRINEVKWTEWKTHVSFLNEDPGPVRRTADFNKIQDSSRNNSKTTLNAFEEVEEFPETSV
Experiment: Whole-cell patch-clamp recording of hTRPV3 current in transfected HEK293T cells (2-APB induced)
Type: cell-based
Settings: current induced by 300 μM 2-APB, compounds tested up to 10 μM, room temperature
How it was run: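 HEK293T cells transiently expressing full-length hTRPV3, recorded by whole-cell patch clamp 18 h post-transfection at room temperature, with 130 mM NaCl/0.3 mM EDTA/3 mM HEPES pH 7.4 on both sides. Holding potential 0 mV; 400-ms steps to +80 and −80 mV every 2 s. Block of 2-APB-evoked current, tested up to 10 μM, fitted to Hill equation for IC50.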

Row | SMILES | IC50
1 | COc1ncnc(OC)c1C(=O)Nc1nc2c(s1)COc1cccc(C(F)(F)F)c1-2 [compound 99, 4,6-dimethoxy-N-(9-(trifluoromethyl)-4H-chromeno[4,3-d]thiazol-2-yl)pyrimidine-5-carboxamide] | ≥ 10000 nM
2 | COc1ncnc(OC)c1C(=O)Nc1nc2c(s1)C(CF)(CF)Oc1cc(C(F)(F)F)ccc1-2 [compound 100] | < 100 nM
3 | CCOC(=O)CCCC1(C)Oc2cc(C(F)(F)F)ccc2-c2nc(NC(=O)c3c(OC)ncnc3OC)sc21 (stereo not shown) [compound 104, ethyl 4-(2-(4,6-dimethoxypyrimidine-5-carboxamido)-4-methyl-7-(trifluoromethyl)-4H-chromeno[4,3-d]thiazol-4-yl)butanoate] | 100 to 1000 nM
4 | CCC1(CC)Oc2cc(C(F)F)ccc2-c2nc(NC(=O)c3c(OC)ncnc3OC)sc21 [compound 105, N-(7-(difluoromethyl)-4,4-diethyl-4H-chromeno[4,3-d]thiazol-2-yl)-4,6-dimethoxypyrimidine-5-carboxamide] | 100 to 1000 nM
5 | COc1ncnc(OC)c1C(=O)Nc1nc2c(s1)C1(CCN(C(=O)OC(C)(C)C)C1)Oc1cc(C(F)(F)F)ccc1-2 (stereo not shown) [compound 106, tert-butyl 2-(4,6-dimethoxypyrimidine-5-carboxamido)-7-(trifluoromethyl)spiro[chromeno[4,3-d]thiazole-4,3′-pyrrolidine]-1′-carboxylate] | 100 to 1000 nM
6 | CCC1(CC)Oc2cnccc2-c2nc(NC(=O)c3c(OC)ncnc3OC)sc21 [compound 107] | 1000 to 10000 nM
7 | COc1ncnc(OC)c1C(=O)Nc1nc2c(s1)C1(COC(C)(C)OC1)Oc1cc(C(F)(F)F)ccc1-2 [compound 108, N-(2′,2′-dimethyl-7-(trifluoromethyl)spiro[chromeno[4,3-d]thiazole-4,5′-[1,3]dioxan]-2-yl)-4,6-dimethoxypyrimidine-5-carboxamide] | 100 to 1000 nM
8 | CCC1(CC)Oc2cc(C(F)(F)F)ccc2-c2nc(NCc3c(OC)ncnc3OC)sc21 [compound 110, N-((4,6-dimethoxypyrimidin-5-yl)methyl)-4,4-diethyl-7-(trifluoromethyl)-4H-chromeno[4,3-d]thiazol-2-amine] | 1000 to 10000 nM
9 | CCC1(CC)Oc2cc(C(F)(F)F)ccc2-c2nc(NC(=O)c3c(Cl)ncnc3Cl)sc21 [compound 111, 4,6-dichloro-N-(4,4-diethyl-7-(trifluoromethyl)-4H-chromeno[4,3-d]thiazol-2-yl)pyrimidine-5-carboxamide] | 1000 to 10000 nM
10 | CCC1(CC)Oc2cc(C(F)(F)F)ccc2-c2nc(NC(=O)c3c(Cl)ncnc3OC)sc21 [compound 112, 4-chloro-N-(4,4-diethyl-7-(trifluoromethyl)-4H-chromeno[4,3-d]thiazol-2-yl)-6-methoxypyrimidine-5-carboxamide] | 100 to 1000 nM
11 | COc1ncnc(OC)c1C(=O)Nc1nc2c(s1)C(CO)(CO)Oc1cc(C(F)(F)F)ccc1-2 [compound 113, N-(4,4-bis(hydroxymethyl)-7-(trifluoromethyl)-4H-chromeno[4,3-d]thiazol-2-yl)-4,6-dimethoxypyrimidine-5-carboxamide] | 1000 to 10000 nM
12 | COc1ncnc(OC)c1C(=O)Nc1nc2c(s1)C(C)(CCCC(=O)O)Oc1cc(C(F)(F)F)ccc1-2 (stereo not shown) [compound 114, 4-(2-(4,6-dimethoxypyrimidine-5-carboxamido)-4-methyl-7-(trifluoromethyl)-4H-chromeno[4,3-d]thiazol-4-yl) butanoic acid] | 1000 to 10000 nM
13 | CCC1(CC)Oc2cc(C(C)=O)ccc2-c2nc(NC(=O)c3c(OC)ncnc3OC)sc21 [compound 117, N-(7-acetyl-4,4-diethyl-4H-chromeno[4,3-d]thiazol-2-yl)-4,6-dimethoxypyrimidine-5-carboxamide] | 1000 to 10000 nM
14 | COCOCC1(COCOC)Oc2cc(C(F)(F)F)ccc2-c2nc(NC(=O)c3c(OC)ncnc3OC)sc21 [compound 118] | 100 to 1000 nM
15 | C=CCc1ncnc(OC)c1C(=O)Nc1nc2c(s1)C(CC)(CC)Oc1cc(C(F)(F)F)ccc1-2 [compound 119, 4-allyl-N-(4,4-diethyl-7-(trifluoromethyl)-4H-chromeno[4,3-d]thiazol-2-yl)-6-methoxypyrimidine-5-carboxamide] | 1000 to 10000 nM
16 | CCC1(CC)Oc2cc(C(F)(F)F)ccc2-c2nc(NC(=O)c3c(NC)ncnc3OC)sc21 [compound 120, N-(4,4-diethyl-7-(trifluoromethyl)-4H-chromeno[4,3-d]thiazol-2-yl)-4-methoxy-6-(methylamino)pyrimidine-5-carboxamide] | 1000 to 10000 nM
17 | CCC1(CC)Oc2cc(C(F)(F)F)ccc2-c2nc(NC(=O)c3c(O)ncnc3OC)sc21 [compound 121, N-(4,4-diethyl-7-(trifluoromethyl)-4H-chromeno[4,3-d]thiazol-2-yl)-4-hydroxy-6-methoxypyrimidine-5-carboxamide] | ≥ 10000 nM
18 | CCC1(CC)Oc2cc(C(F)(F)F)ccc2-c2nc(NC(=O)c3c(OC)ncnc3OCOC)sc21 [compound 122, N-(4,4-diethyl-7-(trifluoromethyl)-4H-chromeno[4,3-d]thiazol-2-yl)-4-methoxy-6-(methoxymethoxy)pyrimidine-5-carboxamide] | ≥ 10000 nM
19 | CCC1(CC)Oc2cc(C)ccc2-c2nc(NC(=O)c3c(OC)ncnc3OC)sc21 [compound 124, N-(4,4-diethyl-7-methyl-4H-chromeno[4,3-d]thiazol-2-yl)-4,6-dimethoxypyrimidine-5-carboxamide] | 100 to 1000 nM

Next, values leading:

Row | IC50 | SMILES
20 | ≥ 10000 nM | COc1ncnc(OC)c1C(=O)Nc1nc2c(s1)C1(CCC(C(=O)O)CC1)Oc1cc(C(F)(F)F)ccc1-2 (stereo not shown) [compound 101, 2-(4,6-dimethoxypyrimidine-5-carboxamido)-7-(trifluoromethyl)spiro[chromeno[4,3-d]thiazole-4,1′-cyclohexane]-4′-carboxylic acid]
21 | ≥ 10000 nM | COc1ncnc(OC)c1C(=O)Nc1nc2c(s1)C1(CCC(C(N)=O)CC1)Oc1cc(C(F)(F)F)ccc1-2 (stereo not shown) [compound 102, 2-(4,6-dimethoxypyrimidine-5-carboxamido)-7-(trifluoromethyl)spiro[chromeno[4,3-d]thiazole-4,1′-cyclohexane]-4′-carboxamide]
22 | 1000 to 10000 nM | CNC(=O)C1CCC2(CC1)Oc1cc(C(F)(F)F)ccc1-c1nc(NC(=O)c3c(OC)ncnc3OC)sc12 (stereo not shown) [compound 103, 2-(4,6-dimethoxypyrimidine-5-carboxamido)-N-methyl-7-(trifluoromethyl)spiro[chromeno[4,3-d]thiazole-4,1′-cyclohexane]-4′-carboxamide]
23 | 100 to 1000 nM | COc1ncnc(OC)c1C(=O)Nc1nc2c(s1)C1(CCC(NC(=O)OC(C)(C)C)CC1)Oc1cc(C(F)(F)F)ccc1-2 (stereo not shown) [compound 109]
24 | 100 to 1000 nM | COc1ncnc(OC)c1C(=O)Nc1nc2c(s1)C1(CN(C(=O)OC(C)C)C1)Oc1cc(C(F)(F)F)ccc1-2 [compound 115, isopropyl 2′-(4,6-dimethoxypyrimidine-5-carboxamido)-7′-(trifluoromethyl)spiro[azetidine-3,4′-chromeno[4,3-d]thiazole]-1-carboxylate]
25 | 1000 to 10000 nM | COc1ncnc(OC)c1C(=O)Nc1nc2c(s1)C1(CCC(C(=O)N(C)C)CC1)Oc1cc(C(F)(F)F)ccc1-2 (stereo not shown) [compound 116, 2-(4,6-dimethoxypyrimidine-5-carboxamido)-N,N-dimethyl-7-(trifluoromethyl)spiro[chromeno[4,3-d]thiazole-4,1′-cyclohexane]-4′-carboxamide]
26 | < 100 nM | COc1ncnc(OC)c1C(=O)Nc1nc2c(s1)C1(CCC(C(=O)OC(C)C)CC1)Oc1cc(C(F)(F)F)ccc1-2 (stereo not shown) [compound 123, isopropyl 2-(4,6-dimethoxypyrimidine-5-carboxamido)-7-(trifluoromethyl)spiro[chromeno[4,3-d]thiazole-4,1′-cyclohexane]-4′-carboxylate]
27 | 1000 to 10000 nM | COc1ncnc(OC)c1C(=O)Nc1nc2c(s1)C1(CCC(C(=O)NC(C)C)CC1)Oc1cc(C(F)(F)F)ccc1-2 (stereo not shown) [compound 125, 2-(4,6-dimethoxypyrimidine-5-carboxamido)-N-isopropyl-7-(trifluoromethyl)spiro[chromeno[4,3-d]thiazole-4,1′-cyclohexane]-4′-carboxamide]
28 | 100 to 1000 nM | COc1ncnc(OC)c1C(=O)Nc1nc2c(s1)C1(CCC(C(=O)N(C)Cc3ccccc3)CC1)Oc1cc(C(F)(F)F)ccc1-2 (stereo not shown) [compound 126, N-benzyl-2-(4,6-dimethoxypyrimidine-5-carboxamido)-N-methyl-7-(trifluoromethyl)spiro[chromeno[4,3-d]thiazole-4,1′-cyclohexane]-4′-carboxamide]
